Results reported in patent USRE44704E1, “Compositions and methods for treating cancer using immunoconjugates and chemotherapeutic agents” (Immunogen Inc., priority 1999, dated 2014).
Like-named read-outs stand apart in the source and are kept apart here.

What was measured:
[1] = test system: human colon cancer HT-29 cells; assay: Anti-tumor effect of C242-DM1, CPT-11 and their combination in established subcutaneous HT-29 xenograft model (Example 7, FIG. 10); type: in vivo; conditions: HT-29 s.c. xenografts, SCID mice, tumors about 80 mm^3 at start; CPT-11 50 mg/kg×2 q3d i.v.; C242-DM1 DM1 dose 75 μg/kg×5 qd i.v.
Procedure: (§1) A control group of animals received phosphate-buffered saline (PBS) using the same schedule as the animals in group 2. Tumor growth was monitored by measuring tumor size twice per week. Tumor size was calculated using the formula: length×width×height×½.

[2] = test system: human small cell lung cancer SW-2 cells; assay: Anti-tumor effect of huN901-DM1, docetaxel and their combination in established subcutaneous SW-2 xenograft model (Example 4, FIG. 7); type: in vivo; conditions: SW-2 s.c. xenografts, SCID mice, tumors about 100 mm^3 at start; docetaxel 5 mg/kg×5 q2d i.v.; huN901-DM1 DM1 dose 75 μg/kg×5 qd i.v.
Procedure: Tumor size was calculated with the formula: length×width×height×½.
In 3 out of 6 animals in this treatment group, the tumor was eradicated—resulting in cures lasting greater than 200 days. In the remaining 3 animals in this group, there was a tumor growth delay of 52 days, which is 24 days longer than the calculated additive effect.

[3] = test system: NCI N417 cells (small cell lung cancer xenografts); type: in vivo; conditions: NCI N417 s.c. xenografts, SCID mice, tumors approx. 100 mm^3 at start; huN901-DM1 DM1 dose 75 μg/kg/d×5 i.v.; paclitaxel 10 mg/kg/d×5 i.p.
Procedure: In this experiment, a low, non-curative dose of huN901-DM1 was used with an optimal does of paclitaxel (Sigma Chemical Co., St. Louis, Mo.). SCID mice (7 animals per group) were inoculated subcutaneously with NCI N417 cells (8×10^6 cells/animal). After the tumors were well-established (average tumor size was approximately 100 mm^3), one group of animals was treated with huN901-DM1 at a DM1 dose of 75 μg/kg/d×5, administered i.v. everyday. A second group of animals was treated with paclitaxel at a dose of 10 mg/kg/d×5, administered by i.p. everyday. […] A fourth, control group of animals was left untreated. Tumor size was measured as described by Liu et al, Proc. Natl. Acad. Sci., 93:8618-8623 (1996). Animals were also monitored for weight loss as an indicator of signs of toxicity.
In the control group of animals, the tumors grew rapidly to a size of about 900 mm^3 by Day 28 post-tumor inoculation. In animals treated with either huN901-DM1 or paclitaxel, there was a modest anti-tumor effect with a tumor growth delay of 4 days in each case.

[4] = test system: human lung adenocarcinoma NCI-H441 cells; conditions: NCI-H441 s.c. xenografts, SCID mice, tumors about 125 mm^3 at start; paclitaxel 15 mg/kg×5 q2d i.p.
Procedure: as §1

[5] = test system: human small cell lung cancer SW-2 cells; assay: Anti-tumor effect of huN901-DM1, topotecan and their combination in established subcutaneous SW-2 xenograft model (Example 5, FIG. 8); type: in vivo; conditions: SCID mice
Procedure: FIG. 8 is a graph comparing the anti-tumor activity of (i) a control, (ii) huN901-DM1, (iii) topotecan, and (iv) the combination of huN901-DM1 and topotecan, against small cell lung cancer xenografts in SCID mice.
The anti-tumor effect of a combination of a low dose of huN901-DM1 and topotecan (available as HYCAMTIN® from SmithKline Beecham Pharmaceuticals), one of the approved drugs for the treatment of small cell lung cancer (SCLC) in humans, was evaluated in an established subcutaneous xenograft model of SCLC. SCID mice (24 animals) were inoculated with human small cell lung cancer SW-2 cells (8×10^6 cells/animal) injected subcutaneously into the right flank of the mice. When the tumors reached about 80 mm^3 in size, the mice were randomly divided into four groups (6 animals per group). The first group of mice was treated with topotecan (1.4 mg/kg×5, qd) administered i.v. A second group of animals was treated with huN901-DM1 (DM1 dose of 100 μg/kg×5, qd) administered i.v. The third group of mice received a combination of topotecan and huN901-DM1, using the same doses and schedules as in groups 1 and 2. A control group of animals received phosphate-buffered saline (PBS) using the same schedule as the animals in group 2. Tumor growth was monitored by measuring tumor size twice per week. Tumor size was calculated using the formula: length×width×height×½.

[6] = test system: NCI N417 cells (small cell lung cancer xenografts); assay: Anti-tumor activity of huN901-DM1, cisplatin plus etoposide, and the triple combination against established NCI N417 xenografts (Example 3, FIG. 6); type: in vivo; conditions: NCI N417 s.c. xenografts, SCID mice; huN901-DM1 DM1 dose 75 μg/kg/d×5 i.v.; cisplatin 2 mg/kg/d×3 i.v. every other day; etoposide 8 mg/kg/d×3 every other day
Procedure: In this experiment, a low, non-curative dose of huN901-DM1 was used with an optimal dose of cisplatin (Sigma Chemical Co., St. Louis, Mo.) and etoposide (Sigma Chemical Co., St. Louis, Mo.). SCID mice (7 animals per group) were inoculated subcutaneously with NCI N417 cells (8×10^6 cells/animal). After the tumors were well-established (average tumor size was approximately 100 mm^3), one group of animals was treated with huN901-DM1 at a DM1 dose of 75 μg/kg/d×5, administered i.v. everyday. A second group of animals was treated with cisplatin (at a dose of 2 mg/kg/d×3, administered by i.v. ever other day) and etoposide (at a dose of 8 mg/kg/d×3, administered every other day). A third group of animals was treated with huN901-DM1, cisplatin and etoposide using the same dose and schedule used for a the individual agents. A fourth, control group of animals was left untreated. Tumor size was measured as described by Liu et al, Proc. Natl. Acad. Sci., 93:8618-8623 (1996). Animals were also monitored for weight loss as an indicator of signs of toxicity.
In the control group of animals, the tumors grew rapidly to a size of about 900 mm^3 by Day 28 post-tumor inoculation. In animals treated with either huN901-DM1 or cisplatin and etoposide, there was a modest anti-tumor effect with a tumor growth delay of 4 days in each case.

Molecule: CCc1c2c(nc3ccc(OC(=O)N4CCC(N5CCCCC5)CC4)cc13)-c1cc3c(c(=O)n1C2)COC(=O)[C@]3(O)CC [CPT-11, irinotecan]
- tumor growth delay [1]: 6 days

Molecule: CC(=O)O[C@@]12CO[C@@H]1C[C@H](O)[C@@]1(C)C(=O)[C@H](O)C3=C(C)[C@@H](OC(=O)[C@H](O)[C@@H](NC(=O)OC(C)(C)C)c4ccccc4)C[C@@](O)([C@@H](OC(=O)c4ccccc4)[C@H]21)C3(C)C [docetaxel]
- tumor growth delay [2]: 8 days

Molecule: CC(=O)O[C@H]1C(=O)[C@@]2(C)[C@H]([C@H](OC(=O)c3ccccc3)[C@]3(O)C[C@H](OC(=O)[C@H](O)[C@@H](NC(=O)c4ccccc4)c4ccccc4)C(C)=C1C3(C)C)[C@]1(OC(C)=O)CO[C@@H]1C[C@@H]2O [paclitaxel]
- tumor growth delay [3]: 4 days
- tumor growth delay [4]: 4 days

Molecule: CC[C@@]1(O)C(=O)OCc2c1cc1n(c2=O)Cc2cc3c(CN(C)C)c(O)ccc3nc2-1 [topotecan]
- tumor growth delay ([5]; SW-2 s.c. xenografts, tumors about 80 mm^3 at start, topotecan 1.4 mg/kg×5 qd i.v.): 12 days

B1: huN901-DM1: maytansinoid DM1 conjugated via SPP disulfide link to humanized monoclonal antibody N901 (binds CD56); 3.9 DM1 molecules per antibody (conjugate, chains of the INN, looked up)
VH: QVQLVESGGGVVQPGRSLRLSCAASGFTFSSFGMHWVRQAPGKGLEWVAYISSGSFTIYYADSVKGRFTISRDNSKNTLYLQMNSLRAEDTAVYYCARMRKGYAMDYWGQGTLVTVSS
VL: DVVMTQSPLSLPVTLGQPASISCRSSQIIIHSDGNTYLEWFQQRPGQSPRRLIYKVSNRFSGVPDRFSGSGSGTDFTLKISRVEAEDVGVYYCFQGSHVPHTFGQGTKVEIK
modifications: DM1 via SPP disulfide linker
notes: 3.9 DM1 molecules per antibody
- tumor growth delay [3]: 4 days
- tumor growth delay [6]: 4 days
- tumor growth delay [2]: 20 days
- animals with complete tumor regression ([5]; SW-2 xenografts, 6 animals per group, topotecan 1.4 mg/kg×5 qd i.v., huN901-DM1 100 μg/kg×5 qd i.v.): 3 animals
- tumor-growth delay in 3 out of 6 animals ([5]; SW-2 xenografts, huN901-DM1 DM1 dose 100 μg/kg×5 qd i.v., the 3 animals without complete regression): 34 days
